US20250270209A1 (INTERLINE THERAPEUTICS, INC., priority 2022, published 2025)

Tests used:
LRRK2 wild type enzyme = LRRK2 wild type enzyme (Homo sapiens, UniProt Q5S007); assay: Biochemical Assay: LRRK2 TR-FRET (LanthaScreen) kinase assay with LRRKtide substrate; conditions: LRRK2 Inhibition, Table 8
Summary of the method: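 Human wild-type LRRK2 (3 nM) preincubated 15 min with compound (11-point, 3-fold, top 10 μM), then reacted 120 min at 23 °C with 400 nM LRRKtide and 25 μM ATP, pH 8.0. Stopped with EDTA; Tb-anti-pLRRKtide TR-FRET read after 30 min.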

[1] = target: T1, wild type LRRK2 overexpressed in recombinant HEK-293T cells (Homo sapiens, UniProt Q5S007); assay: pS935 LRRK2 Cell Assay (HTRF, phospho-LRRK2 Ser935); type: cell-based; conditions: LRRK2 Inhibition, Table 8, 2 hours compound incubation
T1 construct: host or cells: HEK293T (transient transfection with pCMV-LRRK2 WT plasmid)
Summary of the method: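 HEK-293T cells transiently transfected with wild-type LRRK2 for 24 h, plated overnight, then treated 2 h at 37° C with compound (top 10 μM, 3-fold, 9 doses, duplicates, 0.2% DMSO). Lysates probed overnight at 23° C by sandwich HTRF for pSer935; 665/615 nm ratio read.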

LRRK2 wild type enzyme, sequence (Q5S007 whole entry): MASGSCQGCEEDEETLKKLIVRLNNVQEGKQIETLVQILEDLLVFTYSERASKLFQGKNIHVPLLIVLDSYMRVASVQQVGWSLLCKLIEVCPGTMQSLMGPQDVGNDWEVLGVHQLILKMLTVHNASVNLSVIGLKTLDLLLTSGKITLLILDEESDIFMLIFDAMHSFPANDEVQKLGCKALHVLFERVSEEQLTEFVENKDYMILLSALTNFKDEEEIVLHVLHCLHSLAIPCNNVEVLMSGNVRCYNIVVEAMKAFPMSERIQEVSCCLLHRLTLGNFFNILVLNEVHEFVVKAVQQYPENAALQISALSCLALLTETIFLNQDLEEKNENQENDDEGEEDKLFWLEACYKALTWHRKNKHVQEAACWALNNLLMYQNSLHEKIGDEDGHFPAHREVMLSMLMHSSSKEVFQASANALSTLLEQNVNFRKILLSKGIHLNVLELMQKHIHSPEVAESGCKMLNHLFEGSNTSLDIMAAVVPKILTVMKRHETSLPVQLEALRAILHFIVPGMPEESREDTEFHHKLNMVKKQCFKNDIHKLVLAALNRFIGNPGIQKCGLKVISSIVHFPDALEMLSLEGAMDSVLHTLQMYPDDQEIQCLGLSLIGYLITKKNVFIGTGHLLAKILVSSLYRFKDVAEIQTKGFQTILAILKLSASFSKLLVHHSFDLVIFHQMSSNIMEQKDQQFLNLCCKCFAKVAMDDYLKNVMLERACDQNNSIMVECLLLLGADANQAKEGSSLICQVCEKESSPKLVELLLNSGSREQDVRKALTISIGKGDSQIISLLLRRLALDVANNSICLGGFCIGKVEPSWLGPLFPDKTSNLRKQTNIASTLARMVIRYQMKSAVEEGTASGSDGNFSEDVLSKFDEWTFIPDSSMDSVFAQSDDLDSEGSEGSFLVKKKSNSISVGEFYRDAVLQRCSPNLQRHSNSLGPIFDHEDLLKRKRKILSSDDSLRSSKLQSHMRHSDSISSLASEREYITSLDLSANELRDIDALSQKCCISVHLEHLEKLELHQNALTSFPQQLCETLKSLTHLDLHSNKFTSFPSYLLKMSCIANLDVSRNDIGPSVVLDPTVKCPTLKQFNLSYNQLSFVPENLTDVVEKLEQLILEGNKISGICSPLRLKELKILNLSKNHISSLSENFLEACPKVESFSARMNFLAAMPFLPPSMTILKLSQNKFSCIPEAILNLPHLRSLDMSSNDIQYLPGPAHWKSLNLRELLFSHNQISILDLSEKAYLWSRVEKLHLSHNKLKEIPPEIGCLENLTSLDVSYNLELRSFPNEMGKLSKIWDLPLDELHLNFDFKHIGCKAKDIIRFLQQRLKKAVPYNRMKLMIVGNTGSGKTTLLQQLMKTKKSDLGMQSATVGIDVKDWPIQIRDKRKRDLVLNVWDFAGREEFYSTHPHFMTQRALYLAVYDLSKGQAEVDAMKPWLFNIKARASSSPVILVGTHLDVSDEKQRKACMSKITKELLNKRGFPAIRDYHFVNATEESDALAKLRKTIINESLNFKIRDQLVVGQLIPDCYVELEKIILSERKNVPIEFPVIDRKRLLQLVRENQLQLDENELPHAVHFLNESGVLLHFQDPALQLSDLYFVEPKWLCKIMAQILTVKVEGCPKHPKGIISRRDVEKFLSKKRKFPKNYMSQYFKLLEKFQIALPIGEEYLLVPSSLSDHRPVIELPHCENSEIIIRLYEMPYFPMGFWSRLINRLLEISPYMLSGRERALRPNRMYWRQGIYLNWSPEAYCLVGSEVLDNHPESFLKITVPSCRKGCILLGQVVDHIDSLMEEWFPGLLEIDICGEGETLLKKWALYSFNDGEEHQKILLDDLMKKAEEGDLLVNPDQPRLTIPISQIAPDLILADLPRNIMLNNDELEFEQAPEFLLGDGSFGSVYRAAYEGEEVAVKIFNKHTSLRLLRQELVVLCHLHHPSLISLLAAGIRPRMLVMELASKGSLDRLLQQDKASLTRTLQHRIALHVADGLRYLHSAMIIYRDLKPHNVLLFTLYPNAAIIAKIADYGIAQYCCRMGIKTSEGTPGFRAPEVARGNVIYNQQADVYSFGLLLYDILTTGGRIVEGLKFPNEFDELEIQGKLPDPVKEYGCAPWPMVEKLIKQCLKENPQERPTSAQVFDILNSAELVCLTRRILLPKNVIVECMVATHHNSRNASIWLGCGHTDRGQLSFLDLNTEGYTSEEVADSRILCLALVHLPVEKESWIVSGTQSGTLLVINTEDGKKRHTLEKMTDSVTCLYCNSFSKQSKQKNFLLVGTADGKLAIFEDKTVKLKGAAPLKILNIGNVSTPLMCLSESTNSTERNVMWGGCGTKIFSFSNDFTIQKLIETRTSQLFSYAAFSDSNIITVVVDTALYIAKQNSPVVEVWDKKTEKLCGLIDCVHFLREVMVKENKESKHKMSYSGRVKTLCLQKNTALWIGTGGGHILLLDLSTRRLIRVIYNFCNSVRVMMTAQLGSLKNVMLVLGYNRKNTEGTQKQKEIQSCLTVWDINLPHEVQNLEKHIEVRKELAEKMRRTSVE
T1 sequence (Q5S007 whole entry): as above

| SMILES | IC50 (LRRK2 wild type enzyme) [nM] | IC50 [1] [nM] |
| --- | --- | --- |
| C[C@@H]1C[C@H](n2c(CC(=O)NCC3CC3)nc3cnc4ccc(C5CC5)cc4c32)CCO1 [Compound 159, 2-{8-cyclopropyl-1-[(2R,4R)-2-methyloxan-4-yl]-1H-imidazo[4,5-c]quinolin-2-yl}-N-(cyclopropylmethyl)acetamide] | 1.65 | 94.1 |
| C[C@@H]1C[C@H](n2c(CC(=O)NC[C@H]3CCCO3)nc3cnc4ccc(C#N)cc4c32)CCO1 [Compound 153, 2-{8-cyano-1-[(2R,4R)-2-methyloxan-4-yl]-1H-imidazo[4,5-c]quinolin-2-yl}-N-{[(2R)-oxolan-2-yl]methyl} acetamide] | 0.514 | 21.3 |
| CN1CC(n2c(CC(=O)NCC3CC3)nc3cnc4ccc(C#N)cc4c32)CCC1=O (single isomer, unassigned) [Compound 91] | 40.4 | 6910 |
| C[C@@H]1C[C@H](n2c(CC(=O)Nc3ccc(F)nc3)nc3cnc4ccc(C#N)cc4c32)CCO1 [Compound 299, N-(6-fluoro-3-pyridyl){3-[(2R,4R)-2-methyltetrahydro-2H-pyran-4-yl]-12-cyano-3,5,8-triazatricyclo[7.4.0.0^2,6]trideca-1,4,6,8,10,12-hexaen-4-yl}acetamide] | 0.387 | 10.5 |
| Cc1ncnc(C)c1NC(=O)Cc1nc2cnc3ccc(C#N)cc3c2n1[C@@H]1CCO[C@H](C)C1 [Compound 260, N-(4,6-dimethyl-5-pyrimidinyl){3-[(2R,4R)-2-methyltetrahydro-2pyran-4-yl]-12-cyano-3,5,8-triazatricyclo[7.4.0.0^2,6]trideca-1,4,6,8,10,12-hexaen-4-yl}acetamide] | 0.395 | 30.4 |
| C[C@@H]1C[C@H](n2c([C@@H]3CC(=O)N(c4cnn(C)c4)C3)nc3cnc4ccc(C#N)cc4c32)CCO1 [Compound 48, 2-[(3R)-1-(1-methyl-1H-pyrazol-4-yl)-5-oxopyrrolidin-3-yl]-1-[(2R,4R)-2-methyloxan-4-yl]-1H-imidazo[4,5-c]quinoline-8-carbonitrile] | 0.921 | 110 |
| Cc1cnn(C)c1NC(=O)Cc1nc2cnc3ccc(C#N)cc3c2n1[C@@H]1CCO[C@H](C)C1 [Compound 350, N-(1-methyl-4-methyl-5-pyrazolyl){3-[(2R,4R)-2-methyltetrahydro-2H-pyran-4-yl]-12-cyano-3,5,8-triazatricyclo[7.4.0.0^2,6]trideca-1(9),2(6),4,7,10,12-hexaen-4-yl}acetamide] | 0.487 | 15.4 |
| C[C@@H]1C[C@H](n2c(CC(=O)Nc3ccn(CCO)n3)nc3cnc4ccc(C#N)cc4c32)CCO1 [Compound 175, 2-{8-cyano-1-[(2R,4R)-2-methyloxan-4-yl]-1H-imidazo[4,5-c]quinolin-2-yl}-N-[1-(2-hydroxyethyl)-1H-pyrazol-3-yl]acetamide] | 0.32 | 132 |
| C[C@@H]1C[C@H](n2c(CC(=O)Nc3cc(C(F)(F)F)on3)nc3cnc4ccc(C#N)cc4c32)CCO1 [Compound 339, N-[5-(trifluoromethyl)-3-isoxazolyl]{3-[(2R,4R)-2-methyltetrahydro-2H-pyran-4-yl]-12-cyano-3,5,8-triazatricyclo[7.4.0.0^2,6]trideca-1(9),2(6),4,7,10,12-hexaen-4-yl}acetamide] | 1.13 | 11.6 |
| C[C@@H]1C[C@H](n2c(C3CC(=O)N(Cc4cccnc4)C3)nc3cnc4ccc(C#N)cc4c32)CCO1 (single isomer, unassigned) [Compound 30, 1-[(2R,4R)-2-methyloxan-4-yl]-2-[(3R*)-5-oxo-1-[(pyridin-3-yl)methyl]pyrrolidin-3-yl]-1H-imidazo[4,5-c]quinoline-8-carbonitrile] | 0.567 | 41.3 |
| C[C@@H]1C[C@H](n2c(CC(=O)NC3(c4ccccn4)CC3)nc3cnc4ccc(C#N)cc4c32)CCO1 [Compound 363, N-[1-(2-pyridyl)cyclopropyl]{3-[(2R,4R)-2-methyltetrahydro-2H-pyran-4-yl]-12-cyano-3,5,8-triazatricyclo[7.4.0.0^2,6]trideca-1,4,6,8,10,12-hexaen-4-yl}acetamide] | 0.533 | 2.05 |
| CC(=O)N1CC(c2nc3cnc4ccc(C#N)cc4c3n2[C@@H]2CCO[C@H](C)C2)C1 [Compound 63, 2-(1-acetylazetidin-3-yl)-1-[(2R,4R)-2-methyloxan-4-yl]-1H-imidazo[4,5-c]quinoline-8-carbonitrile] | 12.4 | 1850 |
| C[C@@H]1C[C@H](n2c(CN3CCOCC3=O)nc3cnc4ccc(C#N)cc4c32)CCO1 [Compound 78, 1-[(2R,4R)-2-methyloxan-4-yl]-2-[(3-oxomorpholin-4-yl)methyl]-1H-imidazo[4,5-c]quinoline-8-carbonitrile] | 12.2 | 1010 |
| C[C@@H]1C[C@H](n2c(CC(=O)Nc3cnc(C(F)F)nc3)nc3cnc4ccc(C#N)cc4c32)CCO1 [Compound 254, N-[2-(difluoromethyl)-5-pyrimidinyl]{3-[(2R,4R)-2-methyltetrahydro-2H-pyran-4-yl]-12-cyano-3,5,8-triazatricyclo[7.4.0.0^2,6]trideca-1(9),2(6),4,7,10,12-hexaen-4-yl}acetamide] | 0.546 | 27.3 |
| C[C@@H]1C[C@H](n2c(CNC(=O)OC(C)(C)C)nc3cnc4ccc(C#N)cc4c32)CCO1 [Compound 33, tert-butyl N-({8-cyano-1-[(2R,4R)-2-methyloxan-4-yl]-1H-imidazo[4,5-c]quinolin-2-yl}methyl)carbamate] | 5.24 | 396 |
| C[C@@H]1C[C@H](n2c([C@@H]3CCC(=O)N3)nc3cnc4ccc(C#N)cc4c32)CCO1 [Compound 71, 1-[(2R,4R)-2-methyloxan-4-yl]-2-[(2S)-5-oxopyrrolidin-2-yl]-1H-imidazo[4,5-c]quinoline-8-carbonitrile] | 5.49 | 4790 |
| CCOc1ncccc1NC(=O)Cc1nc2cnc3ccc(C#N)cc3c2n1[C@@H]1CCO[C@H](C)C1 [Compound 275, N-(2-ethoxy-3-pyridyl){3-[(2R,4R)-2-methyltetrahydro-2H-pyran-4-yl]-12-cyano-3,5,8-triazatricyclo[7.4.0.0^2,6]trideca-1,4,6,8,10,12-hexaen-4-yl}acetamide] | 0.478 | 2.41 |
| Cc1nc2ccc(C#N)cc2c2c1nc(CC(=O)NCC1CC1)n2[C@@H]1CCO[C@H](C)C1 [Compound 364, N-cyclopropylmethyl{3-[(2R,4R)-2-methyltetrahydro-2H-pyran-4-yl]-12-cyano-7-methyl-3,5,8-triazatricyclo[7.4.0.0^2,6]trideca-1(9),2(6),4,7,10,12-hexaen-4-yl}acetamide] | 186 | 6770 |
| Cc1ncncc1NC(=O)Cc1nc2cnc3ccc(C#N)cc3c2n1[C@@H]1CCO[C@H](C)C1 [Compound 216, N-(4-methyl-5-pyrimidinyl){3-[(2R,4R)-2-methyltetrahydro-2H-pyran-4-yl]-12-cyano-3,5,8-triazatricyclo[7.4.0.0^2,6]trideca-1,4,6,8,10,12-hexaen-4-yl}acetamide] | 0.422 | 12.4 |
| C[C@@H]1C[C@H](n2c(CC(=O)Nc3cncnc3)nc3cnc4ccc(Cl)cc4c32)CCO1 [Compound 331, N-5-pyrimidinyl{3-[(2R,4R)-2-methyltetrahydro-2H-pyran-4-yl]-12-chloro-3,5,8-triazatricyclo[7.4.0.0^2,6]trideca-1(9),2(6),4,7,10,12-hexaen-4-yl}acetamide] | 0.608 | 5.73 |
| C[C@@H]1C[C@H](n2c(CC(=O)Nc3ccon3)nc3cnc4ccc(C#N)cc4c32)CCO1 [Compound 184, 2-{8-cyano-1-[(2R,4R)-2-methyloxan-4-yl]-1H-imidazo[4,5-c]quinolin-2-yl}-N-(1,2-oxazol-3-yl)acetamide] | 0.299 | 4.73 |
| C[C@@H]1C[C@H](n2c([C@@H]3CN(CC4CC4)C(=O)O3)nc3cnc4ccc(C#N)cc4c32)CCO1 [Compound 37, 2-[(5S)-3-(cyclopropylmethyl)-2-oxo-1,3-oxazolidin-5-yl]-1-[(2R,4R)-2-methyloxan-4-yl]-1H-imidazo[4,5-c]quinoline-8-carbonitrile] | 53.1 | 3700 |
| C[C@@H]1C[C@H](n2c(CC(=O)Nc3cccnc3F)nc3cnc4ccc(C#N)cc4c32)CCO1 [Compound 317, N-(2-fluoro-3-pyridyl){3-[(2R,4R)-2-methyltetrahydro-2H-pyran-4-yl]-12-cyano-3,5,8-triazatricyclo[7.4.0.0^2,6]trideca-1(9),2(6),4,7,10,12-hexaen-4-yl}acetamide] | 0.496 | 4.03 |
| C[C@@H]1C[C@H](n2c(CC(=O)NC3CC3)nc3cnc4ccc(C(F)(F)F)cc4c32)CCO1 [Compound 327, N-cyclopropyl{3-[(2R,4R)-2-methyltetrahydro-2H-pyran-4-yl]-12-(trifluoromethyl)-3,5,8-triazatricyclo[7.4.0.0^2,6]trideca-1,4,6,8,10,12-hexaen-4-yl}acetamide] | 1.41 | 43.1 |
| C[C@@H]1C[C@H](n2c(CC(=O)Nc3cccnc3C(F)(F)F)nc3cnc4ccc(C#N)cc4c32)CCO1 [Compound 285, N-[2-(trifluoromethyl)-3-pyridyl]{3-[(2R,4R)-2-methyltetrahydro-2H-pyran-4-yl]-12-cyano-3,5,8-triazatricyclo[7.4.0.0^2,6]trideca-1,4,6,8,10,12-hexaen-4-yl}acetamide] | 0.68 | 18.2 |
